Measured values reported in patent US20250304571A1, “BIOLOGICALLY ACTIVE COMPOUNDS AND METHODS THEREOF” (Suzhou Keen Therapeutics Co., Ltd., priority 2022, published 2025).

What follows are compounds tested on 786-O (renal cell carcinoma) cells (assay: Cell viability (CellTiter Glo) assay, inhibition of 786-O cell proliferation). Conditions: 786-O cells, 72 hours, CellTiter Glo; read-out: IC50, inhibition of 786-O cell proliferation.
Type: cell-based

IC50 [nM] | Structure (SMILES)
> 5000 | CNc1nc([C@H](C)OC(=N)N2CCC[C@@H]2C(F)(F)F)nc2c1C(C)(C)C(=O)N2c1ccc(N2CCOCC2)cc1 [Compound E180]
> 5000 | CNc1nc([C@@H](C)OC(=N)N2CCC[C@@H]2C(F)(F)F)nc2c1C(C)(C)C(=O)N2c1ccc(N2CCOCC2)cc1 [Compound E181]
100 to 500 | N=C(OCc1nc(NC2CC2)c2c(n1)N(c1cc(F)cc(F)c1)C(=O)C21CCCC1)N1CCC[C@@H]1C(F)(F)F [Compound E206]

Structure (SMILES) | IC50 [nM]
CC1(C)C(=O)N(c2ccc(N3CCOCC3)cc2)c2nc(COC(=N)N3CCCCC3C(F)(F)F)nc(N)c21 (stereo not drawn) [Compound E172] | < 100
CNc1nc(COC(=N)N2CCCC2C(F)(F)F)nc2c1C(C)(C)C(=O)N2c1ccc2c(c1)CCCO2 (stereo not drawn) [Compound E182] | < 100

Same assay, conditions: Homo sapiens, 786-0, 72 h, read-out: IC50, inhibition of 786-O cell proliferation

Structure (SMILES) | IC50 [nM]
CC(C)Nc1nc(COC(=N)N2CCCC2C(F)(F)F)nc2c1C(C)(C)C(=O)N2c1ccc(N2CCOCC2)cc1 (stereo not drawn) [Compound E176, (4-(Isopropylamino)-5,5-dimethyl-7-(4-morpholinophenyl)-6-oxo-6,7-dihydro-5H-pyrrolo[2,3-d]pyrimidin-2-yl)methyl 2-(trifluoromethyl)pyrrolidine-1-carbimidate] | < 100
C[C@@H]1CN(c2ccc(N3C(=O)C(C)(C)c4c(NCC(F)F)nc(COC(=N)N5CCC[C@@H]5C(F)(F)F)nc43)cc2)C[C@H](C)O1 [Compound E203] | 100 to 500

Same assay, conditions: Homo sapiens, 786-0; 786-O cells, 72 hours, CellTiter Glo; read-out: IC50, inhibition of 786-O cell proliferation

Structure (SMILES) | IC50 [nM]
CC(C)N(CC(F)(F)F)C(=N)OCc1ncc2c(n1)N(c1ccc(C3CCCCC3)cc1)C(=O)C21CC1 [Compound E159] | 100 to 500
CCCCOc1ccc(N2C(=O)C3(CC3)c3cnc(COC(=N)N(CC(F)(F)F)C(C)C)nc32)cc1 [Compound E161] | 100 to 500
CC(C)N(CC(F)(F)F)C(=N)OCc1ncc2c(n1)N(c1ccc(O)cc1)C(=O)C21CC1 [Compound E165] | > 5000
CNc1nc(COC(=N)N(CC(F)(F)F)C(C)C)nc2c1C(C)(C)C(=O)N2c1ccc(OC2CCCCC2)nc1 [Compound E168] | < 100
CNc1nc(COC(=N)N(C)C2COC2)nc2c1C(C)(C)C(=O)N2c1ccc(OC2CCCCC2)cc1 [Compound E169] | 100 to 500
CC1(C)C(=O)N(c2ccc(N3CCOCC3)cc2)c2nc(COC(=N)N3CCCC3C(F)(F)F)nc(N)c21 (stereo not drawn) [Compound E170] | < 100
CNc1nc(COC(=N)N2CCCCC2C(F)(F)F)nc2c(-c3ccc(N4CCOCC4)cc3OC)csc12 (stereo not drawn) [Compound E171] | < 100
CNc1nc(COC(=N)N2CCCC2C(F)(F)F)nc2c1C(C)(C)C(=O)N2c1ccc(OC2CCCCC2)cc1 (stereo not drawn) [Compound E173] | < 100
CCNc1nc(COC(=N)N2CCCC2C(F)(F)F)nc2c1C(C)(C)C(=O)N2c1ccc(N2CCOCC2)cc1 (stereo not drawn) [Compound E175] | < 100
CNc1nc(COC(=N)N2CCCC2C(F)(F)F)nc2c(-c3ccc(N4CCOCC4)cc3)csc12 (stereo not drawn) [Compound E179, (4-(Methylamino)-7-(4-morpholinophenyl)thieno[3,2-d]pyrimidin-2-yl)methyl 2-(trifluoromethyl)pyrrolidine-1-carbimidate] | < 100
CNc1nc(COC(=N)N2CCC[C@H]2C(F)(F)F)nc2c1C(C)(C)C(=O)N2c1ccc(N2C[C@@H](C)O[C@@H](C)C2)nc1 [Compound E183] | 100 to 500
CNc1nc(COC(=N)N2CCC[C@@H]2C(F)(F)F)nc2c1C(C)(C)C(=O)N2c1ccc2c(c1)CCCO2 [Compound E185] | < 100
C[C@@H]1CN(c2ccc(N3C(=O)C(C)(C)c4c(N)nc(COC(=N)N5CCC[C@@H]5C(F)(F)F)nc43)cn2)C[C@H](C)O1 [Compound E186, (4-amino-7-(6-((2S,6R)-2,6-dimethylmorpholino)pyridin-3-yl)-5,5-dimethyl-6-oxo-6,7-dihydro-5H-pyrrolo[2,3-d]pyrimidin-2-yl)methyl (R)-2-(trifluoromethyl)pyrrolidine-1-carbimidate] | < 100
[2H]C([2H])([2H])Nc1nc(COC(=N)N2CCC[C@@H]2C(F)(F)F)nc2c1C(C)(C)C(=O)N2c1ccc(N2C[C@@H](C)O[C@@H](C)C2)nc1 [Compound E187, (7-(6-((2S,6R)-2,6-Dimethylmorpholino)pyridin-3-yl)-5,5-dimethyl-4-((methyl-d3)amino)-6-oxo-6,7-dihydro-5H-pyrrolo[2,3-d]pyrimidin-2-yl)methyl (R)-2-(trifluoromethyl)pyrrolidine-1-carbimidate] | 100 to 500
C[C@@H]1CN(c2ccc(N3C(=O)C(C)(C)c4c(N)nc(COC(=N)N(C)CC(F)(F)F)nc43)cn2)C[C@H](C)O1 [Compound E189, (4-amino-7-(6-((2R,6S)-2,6-dimethylmorpholino)pyridin-3-yl)-5,5-dimethyl-6-oxo-6,7-dihydro-5H-pyrrolo[2,3-d]pyrimidin-2-yl)methyl methyl(2,2,2-trifluoroethyl)carbamimidate] | 100 to 500
CCN(CC(F)(F)F)C(=N)OCc1nc(N)c2c(n1)N(c1ccc(N3C[C@@H](C)O[C@@H](C)C3)nc1)C(=O)C2(C)C [Compound E190] | 100 to 500
CC(C)N(CC(F)(F)F)C(=N)OCc1nc(N)c2c(n1)N(c1ccc(N3C[C@@H](C)O[C@@H](C)C3)nc1)C(=O)C2(C)C [Compound E191] | 100 to 500
C[C@@H]1CN(c2ccc(N3C(=O)C(C)(C)c4c(N)nc(COC(=N)N(CC(F)(F)F)C5CC5)nc43)cn2)C[C@H](C)O1 [Compound E193] | 100 to 500
CNc1nc(COC(=N)N2CCC[C@@H]2C(F)(F)F)nc2c(-c3ccc(N4C[C@@H](C)O[C@@H](C)C4)nc3)coc12 [Compound E194] | 100 to 500
CC1(C)C(=O)N(c2ccc(N3CCOCC3)cc2)c2nc(COC(=N)N3CCC[C@@H]3C(F)(F)F)nc(NCC(F)F)c21 [Compound E197] | < 100
N=C(OCc1nc(NC2CC2)c2c(n1)N(c1ccc(N3CCOCC3)c(F)c1)C(=O)C21CCCC1)N1CCC[C@@H]1C(F)(F)F [Compound E198] | < 100
N=C(OCc1nc(C(F)F)c2c(n1)N(c1ccc(N3CCOCC3)cc1)C(=O)C21CCCC1)N1CCC[C@@H]1C(F)(F)F [Compound E199] | 500 to 5000
CCCNc1nc(COC(=N)N2CCC[C@@H]2C(F)(F)F)nc2c1C(C)(C)C(=O)N2c1ccc(N2CCOCC2)cc1 [Compound E201] | < 100
N=C(OCc1nc2c(c(C(F)(F)F)n1)C1(CCCC1)C(=O)N2c1ccc(N2CCOCC2)cc1)N1CCC[C@@H]1C(F)(F)F [Compound E202] | 500 to 5000

Results, then the compound that gave them:

IC50 [nM] | Structure (SMILES)
> 5000 | CC(C)N(CC(F)(F)F)C(=N)OCc1ncc2c(n1)N(c1ccc(N3CCOCC3)cc1)C(=O)C21CCOCC1 [Compound E157, (7′-(4-morpholinophenyl)-6′-oxo-2,3,5,6,6′,7′-hexahydrospiro[pyran-4,5′-pyrrolo[2,3-d]pyrimidin]-2′-yl)methyl isopropyl(2,2,2-trifluoroethyl)carbamimidate]
500 to 5000 | CC(C)N(CC(F)(F)F)C(=N)OCc1nc(Cl)c2c(n1)N(c1ccc(OC3CCCCC3)nc1)C(=O)C2(C)C [Compound E158, (4-chloro-7-(6-(cyclohexyloxy)pyridin-3-yl)-5,5-dimethyl-6-oxo-6,7-dihydro-5H-pyrrolo[2,3-d]pyrimidin-2-yl)methyl isopropyl(2,2,2-trifluoroethyl)carbamimidate]
500 to 5000 | CC(C)N(CC(F)(F)F)C(=N)OCc1ncc2c(n1)N(c1ccc(C3CCCCC3)nc1)C(=O)C21CC1 [Compound E160]
500 to 5000 | CC(C)N(CC(F)(F)F)C(=N)OCc1ncc2c(n1)N(c1ccc(N3CCOCC3)cc1)C(=O)C21CC1 [Compound E162]
100 to 500 | CC(C)N(CC(F)(F)F)C(=N)OCc1ncc2c(n1)N(c1ccc(N3CCCCC3)cc1)C(=O)C21CC1 [Compound E163]
< 100 | CCCCCCOc1ccc(N2C(=O)C3(CC3)c3cnc(COC(=N)N(CC(F)(F)F)C(C)C)nc32)cc1 [Compound E164]
< 100 | CNc1nc(COC(=N)N(CC(F)(F)F)C(C)C)nc2c1C1(CC1)C(=O)N2c1ccc(N2CCCCC2)nc1 [Compound E166]
< 100 | CC(C)N(CC(F)(F)F)C(=N)OCc1nc(N)c2c(n1)N(c1ccc(OC3CCCCC3)nc1)C(=O)C2(C)C [Compound E167]
< 100 | CNc1nc(COC(=N)N2CCCCC2C(F)(F)F)nc2c1C(C)(C)C(=O)N2c1ccc(OC2CCCCC2)cc1 (stereo not drawn) [Compound E174]
< 100 | CNc1nc(COC(=N)N2CCC[C@@H]2C(F)(F)F)nc2c(-c3ccc(N4CCOCC4)cc3OC)coc12 [Compound E184, (7-(2-Methoxy-4-morpholinophenyl)-4-(methylamino)furo[3,2-d]pyrimidin-2-yl)methyl (R)-2-(trifluoromethyl)pyrrolidine-1-carbimidate]
< 100 | C[C@@H]1CN(c2ccc(N3C(=O)C(C)(C)c4c(NC5CC5)nc(COC(=N)N5CCC[C@@H]5C(F)(F)F)nc43)cn2)C[C@H](C)O1 [Compound E188, (4-(Cyclopropylamino)-7-(6-((2S,6R)-2,6-dimethylmorpholino)pyridin-3-yl)-5,5-dimethyl-6-oxo-6,7-dihydro-5H-pyrrolo[2,3-d]pyrimidin-2-yl)methyl (R)-2-(trifluoromethyl)pyrrolidine-1-carbimidate]
100 to 500 | C#CCN(CC(F)(F)F)C(=N)OCc1nc(N)c2c(n1)N(c1ccc(N3C[C@@H](C)O[C@@H](C)C3)nc1)C(=O)C2(C)C [Compound E192]
100 to 500 | C[C@@H]1CN(c2ccc(N3C(=O)C(C)(C)c4c(N)nc(COC(=N)N5CC(F)(F)C(F)(F)C5)nc43)cn2)C[C@H](C)O1 [Compound E195]
< 100 | CC1(C)C(=O)N(c2ccc(N3CCOCC3)c(F)c2)c2nc(COC(=N)N3CCC[C@@H]3C(F)(F)F)nc(NC3CC3)c21 [Compound E200]
< 100 | N=C(OCc1nc(NC2CC2)c2c(n1)N(c1cnc(N3CCCCC3)nc1)C(=O)C21CCCC1)N1CCC[C@@H]1C(F)(F)F [Compound E204]
< 100 | N=C(OCc1nc(NC2CC2)c2c(n1)N(c1ccc(F)c(F)c1)C(=O)C21CCCC1)N1CCC[C@@H]1C(F)(F)F [Compound E205]
< 100 | COc1cc(F)ccc1N1CC(C)(C)c2c(NC3CC3)nc(COC(=N)N3CCC[C@@H]3C(F)(F)F)nc21 [Compound E207]
